From patent US11931365B2, “Use of PPAR-delta agonists in the treatment of disease” (Reneo Pharmaceuticals, Inc., priority 2022, dated 2024)
Marks after values point to notes of the source that are not given here. Each block holds one molecule with its values, some of them ahead of it.

How the values were obtained:
[1] = Competitive slurries Form 1 / Form 2 (thermodynamic stability); assay type: physicochemical; conditions: water activities 0.4-0.8; 5, 25, 50° C.
Protocol: Competitive slurries aiming to determine the order of stability between Form 1 and Form 2 were performed in a range of water activities (0.4-0.8).
Crystalline Form 1 (2 g) and Crystalline Hydrate Form 2 (2 g) were lightly ground together using a mortar and pestle and then mixed using a roller mixer for approximately 2 hours. An XRPD was collected on this sample.
Saturated solutions at 5° C./25° C. were prepared by suspending the mixed sample (200 mg) in 4 ml of the selected solvent and saturated solutions were prepared at 50° C. by suspending the mixed sample (100 mg) in 1 ml of the selected solvent. The saturated solutions were left stirring for 3 hrs at 25° C. and 50° C. The saturated solutions at 25° C. were filtered and split into solutions at 5° C. and 25° C. The mixed sample (50 mg) was added to the filtered solutions. Two control samples of Form 2 (50 mg) were prepared in 1 ml of acetone:water (99:1) and EtOH:water (95:5) and left stirring at 5° C., 25° C. and 50° C.

[2] = Gravimetric Vapor Sorption (GVS); assay type: physicochemical; conditions: 25° C., w/w
Protocol: Sorption isotherms were obtained using a SMS DVS Intrinsic moisture sorption analyzer, controlled by DVS Intrinsic Control software. The sample temperature was maintained at 25° C. by the instrument controls. The humidity was controlled by mixing streams of dry and wet nitrogen, with a total flow rate of 200 ml/min. The relative humidity was measured by a calibrated Rotronic probe (dynamic range of 1.0-100% RH), located near the sample. The weight change, (mass relaxation) of the sample as a function of % RH was constantly monitored by a microbalance (accuracy ±0.005 mg).
Typically, 5-30 mg of sample was placed in a tared mesh stainless steel basket under ambient conditions. The sample was loaded and unloaded at 40% RH and 25° C. (typical room conditions). A moisture sorption isotherm was performed as outlined below (2 scans per complete cycle). The standard isotherm was performed at 25° C. at 10% RH intervals over a 0-90% RH range. Typically, a double cycle (4 scans) was carried out. Data analysis was carried out within Microsoft Excel using the DVS Analysis Suite.

[3] = XRPD re-analysis after GVS isotherm; assay type: physicochemical; conditions: after isotherm at 90% RH and 25° C.
Protocol: The samples were recovered after completion of the isotherm experiment at 90% RH and 25° C. and re-analyzed by XRPD.

[4] = Stability of solid state forms (storage, drying), XRPD; assay type: physicochemical
Protocol: Samples were assessed for stability under ambient or static storage conditions of 25° C./[…] and 40° C./75% RH for 7 or 10 days. The samples were then re-analyzed by XRPD. Subsequent XRPD analysis results for the crystalline forms are described below: […]

[5] = Variable temperature XRPD (heating); assay type: physicochemical; conditions: heating to 110° C.
Protocol: For variable temperature (VT-XRPD) experiments the samples were prepared and analyzed in an Anton Paar chromed sample holder. A heating/cooling rate of 10° C./min was used with a 2 min isothermal hold before the measurement started. The measurement parameters are as per the standard screening data collection method (detailed above). Measurements were taken at the following temperatures: […]

[6] = system: patient fibroblasts (VLCAD, LCHAD, TFP deficiencies); conditions: Goddeeris 2017; cited from earlier work
[7] = system: CPT2; conditions: patient fibroblasts, mild CPT2 mutations; Djouadi 2003; cited from earlier work
[8] = system: CPT2-deficient myoblasts; conditions: Djouadi 2005; cited from earlier work
[9] = listed as crystalline Form 4 of Compound II

- Reversible Water Uptake between 0-90% RH [2]: ~13.0% †
- Reversible Water Uptake between 0-90% RH ([2]; listed as crystalline Form 1 of Compound II): ~13.0%
- Solid State Form After GVS (XRPD) [3]: Unchanged (Form 1)
- time to complete conversion to Form 2 ([4]; 25° C./97% RH): 4 weeks
- XRPD form after storage ([4]; 25° C./97% RH/7 days): Form 2
- XRPD form after storage ([4]; 40° C./75% RH/7 days): Unchanged (Form 1)
Compound: Cc1cc(OC/C=C(/c2ccc(F)cc2)c2ccc(C#CCN3CCOCC3)cc2)ccc1OCC(=O)[O-].[Na+] [Form 1, sodium (E)-2-(4-((3-(4-fluorophenyl)-3-(4-(3-morpholinoprop-1-yn-1-yl)phenyl)allyl)oxy)-2-methylphenoxy)acetate]
- form found in competitive slurries of Form 1 and Form 2 [1]: present in most cases with no evidence of Form 2

- Reversible Water Uptake between 0-90% RH [2]: ~23%
- Reversible Water Uptake between 0-90% RH [2, 9]: ~23%
- Solid State Form After GVS (XRPD) [3]: Form 2
- Solid State Form After GVS (XRPD) [3, 9]: converts to Form 2
- XRPD form after storage ([4]; 25° C./97% RH/7 days): Form 2
- XRPD form after storage ([4]; 25° C./97% RH/7 days, listed as crystalline Form 4 of Compound II): converts to Form 2
- XRPD form after storage ([4]; 40° C./75% RH/7 days): Form 1
- XRPD form after storage ([4]; 40° C./75% RH/7 days, listed as crystalline Form 4 of Compound II): converts to Form 1
- XRPD after heating [5]: unchanged
Compound: Cc1cc(OC/C=C(/c2ccc(F)cc2)c2ccc(C#CCN3CCOCC3)cc2)ccc1OCC(=O)[O-].[Na+] [Form 4, sodium (E)-2-(4-((3-(4-fluorophenyl)-3-(4-(3-morpholinoprop-1-yn-1-yl)phenyl)allyl)oxy)-2-methylphenoxy)acetate]

Compound: Cc1cnc(-c2ccc(C(F)(F)F)cc2)n1Cc1ccccc1OCCC[C@@H](C)CC(=O)O [MA-0211]
- fatty acid oxidation [6]: improvements

Compound: CC(C)(Oc1ccc(CCNC(=O)c2ccc(Cl)cc2)cc1)C(=O)O [bezafibrate, 2-(4-{2-[(4-Chlorobenzoyl)amino]ethyl}phenoxy)-2-methylpropanoic acid]
- activity of the deficient enzyme (CPT2) [7]: pharmacological enhancement
- FAO [8]: able to restore FAO
